Values after ≈ are worked out from the molar mass of the structure shown.
Key:
Cryptococcus neoformans [1] = experiment: Antifungal activity against Cryptococcus neoformans after 48 hr incubation
[2] = test system: Mycobacterium tuberculosis; experiment: Antibacterial activity against Mycobacterium tuberculosis H331; format: functional
[3] = test system: Mycobacterium tuberculosis; experiment: Antibacterial activity against Mycobacterium tuberculosis H172; format: functional
Candida parapsilosis [4] = experiment: Antifungal activity against Candida parapsilosis after 24 hr incubation; format: functional; details: Lodderomyces parapsilosis
Nakaseomyces glabratus [5] = experiment: Antifungal activity against Candida glabrata after 48 hr incubation; format: functional
Staphylococcus aureus = experiment: Antibacterial activity against Staphylococcus aureus ATCC 25923; format: functional
[6] = test system: Mycobacterium tuberculosis; experiment: Antibacterial activity against Mycobacterium tuberculosis H242; format: functional
Nakaseomyces glabratus [7] = experiment: Antifungal activity against Candida glabrata after 24 hr incubation; format: functional
Candida albicans [8] = experiment: Antifungal activity against Candida albicans after 24 hr incubation; format: functional
Candida albicans [9] = experiment: Antifungal activity against Candida albicans after 48 hr incubation; format: functional
Escherichia coli = experiment: Antibacterial activity against Escherichia coli ATCC 25922; format: functional
Cryptococcus neoformans [10] = experiment: Antifungal activity against Cryptococcus neoformans after 24 hr incubation
[11] = test system: Mycobacterium tuberculosis; experiment: Antibacterial activity against human Mycobacterium tuberculosis H37Rv; format: functional
Candida parapsilosis [12] = experiment: Antifungal activity against Candida parapsilosis after 48 hr incubation; format: functional; details: Lodderomyces parapsilosis

| Structure (SMILES) | MIC (Cryptococcus neoformans [1]) [mg/L] | MIC [2] [mg/L] | MIC [3] [mg/L] | MIC (Candida parapsilosis [4]) [mg/L] | MIC (Nakaseomyces glabratus [5]) [mg/L] | MIC (Staphylococcus aureus) [mg/L] | MIC [6] [mg/L] | MIC (Nakaseomyces glabratus [7]) [mg/L] | MIC (Candida albicans [8]) [mg/L] | MIC (Candida albicans [9]) [mg/L] | MIC (Escherichia coli) [mg/L] | MIC (Cryptococcus neoformans [10]) [mg/L] | MIC [11] [mg/L] | MIC (Candida parapsilosis [12]) [mg/L] |
| --- | --- | --- | --- | --- | --- | --- | --- | --- | --- | --- | --- | --- | --- | --- |
| CCCCCCCC/C=C/CCCCCCCCCCCCCC[C@@H](O)C(=O)N[C@@H](CO[C@@H]1OC(CO)[C@@H](O)C(O)C1O)[C@H](O)[C@H](O)CCC/C=C/CCCCCCCCC (some centres undefined) | > 128 | 40 (≈ 46 µM) | 40 (≈ 46 µM) | > 128 | > 128 | > 160 | 80 (≈ 91.9 µM) | > 128 | > 128 | > 128 | > 160 | 128 (≈ 147 µM) | 40 (≈ 46 µM) | > 128 |
| CCCCCCCCC/C=C/CC/C=C/[C@@H](O)[C@H](CO[C@@H]1OC(CO)[C@@H](O)C(O)C1O)NC(=O)[C@H](O)CCCCCCCCCCCCCC (some centres undefined) | > 128 | > 160 | > 160 | > 128 | > 128 | > 160 | > 160 | > 128 | > 128 | > 128 | > 160 | 128 (≈ 179 µM) | > 160 | > 128 |
| CCCCCCCCC/C=C/CCC[C@@H](O)[C@@H](O)[C@H](CO[C@@H]1OC(CO)[C@@H](O)C(O)C1O)NC(=O)[C@H](O)CCCCCCCCCCCCCCCCCCCCCC (some centres undefined) | > 128 | > 160 | > 160 | > 128 | > 128 | > 160 | > 160 | > 128 | > 128 | > 128 | > 160 | 128 (≈ 152 µM) | > 160 | > 128 |
| CCCCCCCC/C=C/CCCCCCCCCCCC[C@@H](O)C(=O)N[C@@H](CO[C@@H]1OC(CO)[C@@H](O)C(O)C1O)[C@H](O)[C@H](O)CCC/C=C/CCCCCCCCC (some centres undefined) | > 128 | > 160 | > 160 | > 128 | > 128 | 160 (≈ 190 µM) | > 160 | > 128 | > 128 | > 128 | 160 (≈ 190 µM) | 64 (≈ 76 µM) | 160 (≈ 190 µM) | > 128 |
| O=C(O)c1cn(C2CC2)c2cc(N3CCNCC3)c(F)cc2c1=O [CIPROFLOXACIN] |  | 0.125 (≈ 0.377 µM) | 0.25 (≈ 0.754 µM) |  |  | 0.5 (≈ 1.51 µM) | 0.125 (≈ 0.377 µM) |  |  |  |  |  | 0.25 (≈ 0.754 µM) |  |
| Clc1ccc(COC(Cn2ccnc2)c2ccc(Cl)cc2Cl)c(Cl)c1 (centres undefined) [MICONAZOLE] | 0.156 (≈ 0.375 µM) |  |  | 0.625 (≈ 1.5 µM) | 10 (≈ 24 µM) |  |  | 5 (≈ 12 µM) | 2.5 (≈ 6.01 µM) | 40 (≈ 96.1 µM) |  | 0.156 (≈ 0.375 µM) |  | 1.25 (≈ 3 µM) |

Source: ChEMBL document CHEMBL1136478, “New cerebrosides from Euphorbia peplis L.: antimicrobial activity evaluation” (2003)
